Experimental findings from ChEMBL document CHEMBL4177651, “RNA as a small molecule druggable target” (Bioorg Med Chem Lett, 2017) are described below.

SMILES strings stand for the structures.

The nature of experiment [1]: Inhibition of poly(CUG) RNA (unknown origin) splicing expressed in human Hela cells assessed as decrease in toxicity after 24 hrs by WST-1 assay. The experiment is classed as cell-based. Background: Formazan colour is commonly taken as a measure of viable cells.
Experiment [2] can be described thus: Binding affinity to 1A1 Bacillus subtilis xpt-pbuX RNA guanine riboswitch. Conditions: read-out: Kd(app).
The nature of experiment [3]: Inhibition of [gamma-32P]ATP labelled (CUG)4 RNA (unknown origin) binding to recombinant His6-tagged MBNL1N (1 to 272 residues) after 10 -15 mins incubation in presence of tRNA by SDS-PAGE analysis.
The subject of another experiment is Hepatitis C virus. Put plainly: Antiviral activity against Hepatitis C virus genotype 1b infected in BM4-5 FEO replicon cells after 48 hrs by bright-glo luciferase reporter gene assay. The experiment is classed as functional, organism-based, Hepacivirus hominis. Particulars: BM4-5, 48 h. (In general: A replicon is a self-replicating genome or part of one, used to study replication in cells.)

A short description of experiment [4]: Binding affinity to 1A1 Bacillus subtilis 179 lysC RNA lysine riboswitch by probing analysis. Particulars: read-out: Kd(app).
The nature of experiment [5]: Binding affinity to Bacillus subtilis ribD RNA FMN riboswitch after 40 to 48 hrs by SDS-PAGE analysis. Conditions: read-out: Kd(app).
A further experiment concerns the target Quadruplex DNA. Kind of experiment: Binding affinity to biotin-labeled c-Myc Pu22 G-quadruplex DNA (unknown origin) assessed as […] by surface plasmon resonance assay. Format: nucleic-acid assay. For orientation: SPR reads the build-up and loss of mass on a sensor chip optically.
Experiment [6] in a line: Binding affinity to Aspergillus oryzae RNA TPP riboswitch after 40 hrs by SDS-PAGE analysis. Conditions: read-out: Kd(app).
The nature of experiment [7]: Binding affinity bacterial RNA purine riboswitch sequence by isothermal titration calorimetry. Set-up: species or system Bacteria. Conditions: read-out: Kd(app).
Experiment [8] can be described thus: Inhibition of poly(CUG) RNA (unknown origin) binding to recombinant N-terminal PL-MBNL1 preincubated for 30 mins followed by protein addition after 1 hr in presence of tRNA by enzyme fragment complementation assay.

Regarding `Nc1cccc(-c2nc3cc(-c4ccc5[nH]c(-c6cccc(N)c6)nc5c4)ccc3[nH]2)c1`, in experiment [1], the inhibition constant (Ki) stood at 50000 nM. Regarding `ONc1ncnc2[nH]cnc12`, the Kd in [2] amounted to 20 nM. Consider `COc1ccc2nc3cc(Cl)ccc3c(NCCCCNc3nc(N)nc(N)n3)c2c1`, for which the Ki in experiment [3] was 52000 nM. Regarding `O=C(Nc1ccc(-c2nc3ccccc3[nH]2)cc1)c1ccc(-c2ccc(Cl)cc2)o1`, the Ki in experiment [1] turned out to be 128000 nM. `CC(=O)c1ccc(C(=O)N[C@@H](CCCCN)C(=O)N2C[C@H](N)C[C@H](N)C2)cc1` displayed an IC50 in the experiment with Hepatitis C virus of 10000 nM. Regarding `NCCS(=O)(=O)C[C@H](N)C(=O)O`, in [4], the Kd is 2500 nM. With `Cc1cc2nc3c(=O)[nH]c(=O)nc-3n(C[C@@H](O)[C@@H](O)[C@@H](O)CO)c2cc1N(C)C`, the Kd in [5] worked out at 100 nM.

As for `Cc1ccc(NC(=O)c2c(C)oc3ccc(O)c(CN4CCCCCC4)c23)cc1`, the Kd on Quadruplex DNA turned out to be 4500 nM. Regarding `Cc1ncc(C[n+]2cccc(CCO)c2C)c(N)n1`, in [6], the Kd amounted to 20 nM. For `Nc1nc(N)c2nc[nH]c2n1` [2,6-DIAMINOPURINE], the Kd in [7] is 4 nM. Regarding `CN(C(=O)[C@@H]1CCCN1C(=O)c1ccc2c(c1)OCO2)[C@@H](CS)C(=O)N[C@@H](CCCCN)C(=O)NCCCN`, in [8], the inhibition constant (Ki) is 3000 nM.

The Ki is the dissociation constant of the complex between target and ligand, obtained from inhibition or displacement. The IC50 is the concentration that gives 50% inhibition. Higher therefore signals a need for much substance.
